Assays:
cyclin D1 = assay: Western blotting of cyclin D1 in primary rat hepatocytes; type: cell-based; settings: 50 μM; 72 hours
Source text: (§1) Male outbred Sprague-Dawley rats (200-300 g, Iffa Credo, Brussels, Belgium) were kept under controlled environmental conditions (12-hr light-dark cycle) and fed a standard diet (Animafabo A04, water ad libitum). Hepatocytes were isolated by a two-step collagenase perfusion as described (De Smet et al. In ‘Methods in Molecular Biology, Vol. 107: Cytochrome P450 Protocols’, Philips I R and Shephard E A, eds., pp 295-301, Humana Press, Totowa, 1998). Cell liability was >90% as determined by trypan blue exclusion. Cells (0.4×10^5 cells/cm^2) were plated in MEM/M199 (3:1), containing BSA (1 mg/ml), bovine insulin (10 μg/ml), L-glutamine (2 mM), FBS (10% v/v) and antibiotics (7.3 IU/ml benzyl penicillin, 50 μg/ml streptomycin sulphate, 50 μg/ml kanamycin monosulphstep and 10 μg/ml sodium ampicillin). Four hours after plating, serum-containing medium was removed and fresh serum-free medium was added to the cultures. Culture medium was refreshed daily. […]
(§2) Total cell extracts were prepared as described previously (Papeleu et al. J Hepatol 39: 374-382, 2003) and proteins (25 or 50 μg per lane) were separated electrophoretically by SDS-PAGE and electroblotted onto nitrocellulose membranes (Amersham Pharmacia Biotech, Buckinghamshire, UK). […] Proteins were detected using the ECL detection system (Amersham Pharmacia Biotech, Buckinghamshire, UK) according to the manufacturer's recommendations.

Pak1 = assay: Western blotting of Pak1 in primary rat hepatocytes; type: cell-based; settings: 50 μM, sustained treatment, EGF-stimulated
Source text: as §1, §2

[1] = system: glutathione S-transferase (GST); assay: Total cytosolic GST activity in cultured rat hepatocytes; type: cell-based; settings: TSA starting at 4 hours; day 4 and 7
Source text: Hepatocytes were isolated from male Sprague-Dawley rats by a two-step collagenase perfusion as described (De Smet et al. In ‘Methods in Molecular Biology, Vol. 107: Cytochrome P450 Protocols’, Philips IR and Shephard E A, eds., p.p 295-301, Humana Press, Totowa, 1998). Hepatocytes were cultivated in monolayer cultures with Willam's E Medium (WE) for 7 days. […] The maintenance of differentiation characteristics was studied after 2, 4, and 7 days (D2, D4, D7) of culture.
In order to investigate Phase II biotransformation, total cytosolic glutathione S-transferase (GST) activity and activities of individual GSTA, GSTP, and GSTM iso-enzymes were measured using standard techniques known in the art. (i.e., measuring conjugation of reduced glutathione with 1-chloro-2,4-dinitrobenzene for total GST; measuring conjugation of reduced glutathione with 7-chloro-4-nitrobenzo-2-oxa-1,3-diazole for GSTA activity; measuring conjugation of reduced glutathione with ethacrynic acid for GSTP activity; and measuring conjugation of reduced glutathione with 1,2-dichloro-4-nitrobenzene for GSTM activity).

[2] = Biotransformation by rat liver microsomes; type: in vitro ADME; settings: 140 μM TSA, 150 min
Protocol: Human liver specimens (n=3) were acquired from organ donors at the Academic Hospital of the VUB in accordance with the regulations of the local Medical Ethical Committee and immediately frozen in liquid nitrogen. While human liver microsomes were prepared from frozen liver tissue, rat livers (n=3) were freshly isolated for immediate microsome preparation. Microsomal 7-ethoxyresorufin-O-deethylase (EROD) [31]was used as a marker enzyme to evaluate the microsomal biotransformation activity before and after storage. Incubations were carried out in a 100 mM sodium potassium phosphate buffer pH 7.4 in the presence of a NADPH-generating system (0.5 mM NADP^+, 10 mM glucose 6-phosphate, 2 U/ml glucose 6-phosphate dehydrogenase and 0.6 mM MgCl2). Microsomes (0.0-2.0 mg microsomal protein/ml) were incubated with 140 μM substrate at 37° C. for 150 min. Boiled microsomes ([…]) served as a control. Biotransformation reactions were initiated by addition of substrate and, at selected time intervals, terminated by dilution with ice-cold acetonitrile (1:2.5).
After centrifugation (2000 g, 45 min, 4° C.) of the diluted microsomal samples, the clear supernatant was injected onto a HPLC column. Samples from incubations with hepatocytes were thawed on ice and centrifugated (120 g, 2 min). […]

rat hepatocytes = assay: Albumin ELISA in primary rat hepatocyte monolayers (conditions C1, C2); type: cell-based; settings: 1 μM TSA; from D4 (C2) or D7 (C1) on
Protocol: In all conditions, the hepatocytes were cultivated as a monolayer configuration, and samples were taken at days 1, 4 and 7 (D1, D4, D7) of the cultivation time.
ALB concentrations secreted into the media were analysed by competitive enzyme-linked immunosorbent assay (ELISA) as described (Koebe et al. Int J Artif Organs 17: 95-106, 1994). The ALB levels were normalized with respect to the media used.

| Compound | cyclin D1 protein accumulation upon growth factor stimulation (cyclin D1) | cellular levels of Pak1 (Pak1) | total GST activity versus EtOH treated controls [1] | biotransformation in microsome suspensions [2] | albumin secretion (rat hepatocytes) |
| --- | --- | --- | --- | --- | --- |
| CN(C)c1ccc(C(=O)NCCCCC(=O)NO)cc1 [4-Me2N-BAVAH, 5-(4-dimethylaminobenzoyl)-aminovaleric acid hydroxamide] | completely failed to accumulate cyclin D1 protein | decrease in the cellular levels of Pak1 | – | – | – |
| CC(C=CC(=O)NO)=CC(C)C(=O)c1ccc(N(C)C)cc1 (centres unmarked) [TSA] | – | – | significantly higher | slow and incomplete biotransformation | improves albumin secretion |
